Experimental data taken from patent publication US20170066717A1, “NEW PHENYLAZETIDINECARBOXYLATE OR -CARBOXAMIDE COMPOUNDS” (INVENTIVA, priority 2014, published 2017).

Experiments:
NURR-1/RXRα = target: T1, NURR-1/RXRα (Homo sapiens, UniProt P19793); assay: Transactivation test, NURR-1-Gal4/RXRα, luciferase reporter in Cos-7 cells; type: cell-based; conditions: for Emax: COS-7, induction level relative to reference XCT0135908 at 2×10^−5 M (=100%), read-out: hNurr1_RXRaFL Emax (%); for EC50: Cos-7 cells, NURR-1-Gal4/RXRα, luciferase reporter, read-out: hNurr1_RXRaFL EC50
T1 construct: expressed in transfected cells; host or cells: Cos-7 cells

NURR-1/RXRγ = target: T2, NURR-1/RXRγ (Homo sapiens, UniProt P48443); assay: Transactivation test, NURR-1-Gal4/RXRγ, luciferase reporter in Cos-7 cells; type: cell-based; conditions: for Emax: COS-7, induction level relative to reference XCT0135908 at 2×10^−5 M (=100%), read-out: hNurr1_RXRgFL Emax (%); for EC50: Cos-7 cells, NURR-1-Gal4/RXRγ, luciferase reporter, read-out: hNurr1_RXRgFL EC50
T2 construct: expressed in transfected cells; host or cells: Cos-7 cells
T2 sequence (P48443 whole entry, the tested form may be a part): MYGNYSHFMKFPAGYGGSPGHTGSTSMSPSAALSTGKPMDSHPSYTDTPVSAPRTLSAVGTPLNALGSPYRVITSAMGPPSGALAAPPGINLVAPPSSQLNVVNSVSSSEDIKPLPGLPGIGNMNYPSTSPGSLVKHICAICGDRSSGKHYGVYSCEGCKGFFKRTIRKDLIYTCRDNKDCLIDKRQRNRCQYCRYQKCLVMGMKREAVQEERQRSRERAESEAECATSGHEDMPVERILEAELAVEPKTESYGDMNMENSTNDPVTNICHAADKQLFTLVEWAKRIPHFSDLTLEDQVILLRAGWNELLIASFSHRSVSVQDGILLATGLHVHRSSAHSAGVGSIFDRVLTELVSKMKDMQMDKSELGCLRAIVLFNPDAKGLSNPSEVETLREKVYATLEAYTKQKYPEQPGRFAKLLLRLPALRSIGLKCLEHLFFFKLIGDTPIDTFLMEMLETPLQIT
T2 sequence (P43354 whole entry partner, the tested form may be a part): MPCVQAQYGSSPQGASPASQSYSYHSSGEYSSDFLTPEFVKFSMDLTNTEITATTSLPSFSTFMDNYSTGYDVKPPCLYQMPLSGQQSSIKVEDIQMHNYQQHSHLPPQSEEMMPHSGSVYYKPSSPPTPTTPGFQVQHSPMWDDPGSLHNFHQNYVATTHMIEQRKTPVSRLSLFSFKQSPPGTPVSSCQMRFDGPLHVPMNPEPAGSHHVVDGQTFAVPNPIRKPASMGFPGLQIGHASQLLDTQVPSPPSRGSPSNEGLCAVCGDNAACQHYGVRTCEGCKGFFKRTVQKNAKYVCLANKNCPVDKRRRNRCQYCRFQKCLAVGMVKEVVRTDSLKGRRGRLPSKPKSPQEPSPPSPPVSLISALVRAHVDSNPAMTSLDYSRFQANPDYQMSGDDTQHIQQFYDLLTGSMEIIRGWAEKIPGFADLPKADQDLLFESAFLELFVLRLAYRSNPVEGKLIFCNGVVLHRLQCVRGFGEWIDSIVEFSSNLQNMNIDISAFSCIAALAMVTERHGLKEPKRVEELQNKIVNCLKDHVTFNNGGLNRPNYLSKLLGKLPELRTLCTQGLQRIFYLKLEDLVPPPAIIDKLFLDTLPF
T2 sequence (P04386 1-147 partner limits assumed): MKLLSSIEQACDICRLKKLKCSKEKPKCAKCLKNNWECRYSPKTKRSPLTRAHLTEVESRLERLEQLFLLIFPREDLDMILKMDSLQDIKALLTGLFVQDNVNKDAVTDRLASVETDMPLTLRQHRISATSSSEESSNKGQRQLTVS

T1 sequence (P19793 whole entry, the tested form may be a part): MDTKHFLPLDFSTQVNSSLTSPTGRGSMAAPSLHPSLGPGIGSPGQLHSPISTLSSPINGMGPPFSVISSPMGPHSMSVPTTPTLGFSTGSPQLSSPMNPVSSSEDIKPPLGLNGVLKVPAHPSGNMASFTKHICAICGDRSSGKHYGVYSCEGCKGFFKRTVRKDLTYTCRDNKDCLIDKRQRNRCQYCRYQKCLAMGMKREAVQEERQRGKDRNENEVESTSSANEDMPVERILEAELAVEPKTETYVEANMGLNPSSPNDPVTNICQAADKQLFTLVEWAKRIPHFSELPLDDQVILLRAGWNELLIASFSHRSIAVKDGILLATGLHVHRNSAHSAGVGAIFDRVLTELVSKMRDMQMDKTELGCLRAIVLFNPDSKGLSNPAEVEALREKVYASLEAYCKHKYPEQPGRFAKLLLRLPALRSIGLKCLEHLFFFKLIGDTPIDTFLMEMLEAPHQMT
T1 sequence (P43354 whole entry partner, the tested form may be a part): as the sequence (P43354 whole entry partner, the tested form may be a part) above
T1 sequence (P04386 1-147 partner limits assumed): as the sequence (P04386 1-147 partner limits assumed) above

SMILES	Emax (NURR-1/RXRα)	EC50 (NURR-1/RXRα)	Emax (NURR-1/RXRγ)	EC50 (NURR-1/RXRγ)	melting point
O=C(O)C1CN(c2cccc(-n3cc(CC4CCOC4)c4cc(C(F)(F)F)ccc43)c2)C1 (stereo not shown) [Example 128, 1-[3-[3-(tetrahydrofuran-3-ylmethyl)-5-(trifluromethyl)indol-1-yl]phenyl]adetidine-3-carboxylic acid]	110%	3 nM	105%	6 nM	63 to 67 °C
O=C(O)C1CN(c2cccc(-n3cc(CN4CCOCC4)c4cc(C(F)(F)F)ccc43)c2)C1 [Example 132, 1-[3-[3-(morpholinomethyl)-5-(trifluoromethyl)indol-1-yl]phenyl]azetidine-3-carboxylic acid]	97%	61 nM	132%	133 nM	93 to 98 °C
COCCNCc1cn(-c2cccc(N3CC(C(=O)O)C3)c2)c2ccc(C(F)(F)F)cc12 [Example 133, 1-[3-[3-[(2-methoxyethylamino)methyl]-5-(trifluoromethyl)indol-1-yl]phenyl]azetidine-3-carboxylic acid]	93%	1020 nM	61%	1980 nM	116 to 121 °C
CC(C)N(C)Cc1cn(-c2cccc(N3CC(C(=O)O)C3)c2)c2ccc(C(F)(F)F)cc12 [Example 134, 1-[3-[3-[[iisopropyl(methyl)amino]methyl]-5-(trifluoromethyl)indol-1-yl]phenyl]azetidine-3-carboxylic acid]	89%	227 nM	108%	664 nM	88 to 95 °C
O=C(O)C1CN(c2cccc(-n3cc(S(=O)(=O)c4ccccc4)c4cc(C(F)(F)F)ccc43)c2)C1 [Example 135, 1-[3-[3-(benzenesulfonyl)-5-(trifluoromethyl)indol-1-yl]phenyl]azetidine-3-carboxylic acid]	77%	34 nM	83%	65 nM	150 to 153 °C
O=C(O)C1CN(c2cccc(N3CC4(CCOCC4)c4cc(C(F)(F)F)ccc43)c2)C1 [Example 141, 1-[3-[5-(trifluoromethyl)spiro[indoline-3,4′-tetrahydropyran]-1-yl]phenyl]azetidine-3-carboxylic acid]	92%	140 nM	113%	199 nM	154 to 162 °C
O=C(O)C1CN(c2cccc(N3C(=O)C4(CCCC4)c4cc(C(F)(F)F)ccc43)c2)C1 [Example 142, 1-[3-[2′-oxo-5′-(trifluoromethyl)spiro[cyclopentane-1,3′-indoline]-1′-yl]phenyl]azetidine-3-carboxylic acid]	130%	11 nM	148%	22 nM	87 to 91 °C
O=C(O)C1CN(c2cccc(N3c4ccc(C(F)(F)F)cc4C4CC43)c2)C1 (stereo not shown) [Example 143, 1-[3-[5-(trifluoromethyl)-1a,6b-dihydro-1H-cyclopropa[b]indol-2-yl]phenyl]azetidine-3-carboxylic acid]	97%	18 nM	–	45 nM	67 to 71 °C
CC1(C)CCC2C(C1)c1cc(C(F)(F)F)ccc1N2c1cccc(N2CC(C(=O)O)C2)c1 (stereo not shown) [Example 145, 1-[3-[3,3-dimethyl-6-(trifluoromethyl)-2,4,4a,9a-tetrahydro-1H-carbazol-9-yl]phenyl]azetidine-3-carboxylic acid]	98%	4 nM	96%	6 nM	96 to 100 °C
O=C(O)C1CN(c2cccc(N3c4ccc(C(F)(F)F)cc4C4CCCC43)c2)C1 (stereo not shown) [Example 146, 1-[3-[7-(trifluoromethyl)-2,3,3a,8b-tetrahydro-1H-cyclopenta[b]indol-4-yl]phenyl]azetidine-3-carboxylic acid]	96%	10 nM	107%	17 nM	61 to 65 °C

Now from value to compound:

Emax (NURR-1/RXRα)	EC50 (NURR-1/RXRα)	Emax (NURR-1/RXRγ)	EC50 (NURR-1/RXRγ)	melting point	SMILES
122%	31 nM	130%	56 nM	134 to 144 °C	CC(C)Cn1c(=O)n(-c2cccc(N3CC(C(=O)O)C3)c2)c2ccc(C(F)(F)F)cc21 [Example 148]
89%	4 nM	79%	4 nM	99 to 109 °C	Cc1cn(-c2cccc(N3CC(C(=O)NS(C)(=O)=O)C3)c2)c2ccc(C(F)(F)F)cc12 [Example 150, N-methylsulfonyl-1-[3-[3-methyl-5-(trifluoromethyl)indol-1-yl]phenyl]azetidine-3-carboxamide]
90%	5 nM	91%	7 nM	182 to 184 °C	Cc1cn(-c2cccc(N3CC(C(=O)NC4CC4)C3)c2)c2ccc(C(F)(F)F)cc12 [Example 184, N-cyclopropyl-1-[3-[3-methyl-5-(trifluoromethyl)indol-1-yl]phenyl]azetidine-3-carboxamide]
95%	5 nM	90%	7 nM	160 to 163 °C	Cc1cn(-c2cccc(N3CC(C(N)=O)C3)c2)c2ccc(C(F)(F)F)cc12 [Example 185, 1-[3-[3-methyl-5-(trifluoromethyl)indol-1-yl]phenyl]azetidine-3-carboxamide]
100%	7 nM	98%	9 nM	67 to 74 °C	CC1(C)CNc2c(cc(OC(F)(F)F)cc2-c2cccc(N3CC(C(=O)O)C3)c2)O1 [Example 188, 1-[3-[2.2-dimethyl-7-(trifluoromethoxy)-3,4-dihydro-1,4-benzoxazin-5-yl]phenyl]azetidine-3-carboxylic acid]
110%	13 nM	119%	475 nM	81 to 88 °C	CC1(C)CNc2c(cc(Cl)cc2-c2cccc(N3CC(C(=O)O)C3)c2)O1 [Example 189, 1-[3-(7-chloro-2,2-dimethyl-3,4-dihydro-1,4-benzoxazin-5-yl)phenyl]azetidine-3-carboxylic acid]
110%	18 nM	109%	36 nM	82 to 90 °C	Cc1cc2c(c(-c3cccc(N4CC(C(=O)O)C4)c3)c1)NCC(C)(C)O2 [Example 190, 1-[3-(2,2,7-trimethyl-3,4-dihydro-1,4-benzoxazin-5-yl)phenyl]azetidine-3-carboxylic acid]
90%	31 nM	91%	47 nM	78 to 83 °C	CC(C)c1cc2c(c(-c3cccc(N4CC(C(=O)O)C4)c3)c1)NCC(C)(C)O2 [Example 191, 1-[3-(7-isopropyl-2,2-dimethyl-3,4-dihydro-1,4-benzoxazin-5-yl)phenyl]azetidine-3-carboxylic acid]
92%	40 nM	89%	102 nM	70 to 74 °C	CC1(C)CNc2c(cc(C3CC3)cc2-c2cccc(N3CC(C(=O)O)C3)c2)O1 [Example 192, 1-[3-(7-cyclopropyl-2,2-dimethyl-3,4-dihydro-1,4-benzoxazin-5-yl)phenyl]azetidine-3-carboxylic acid]
109%	1170 nM	85%	799 nM	144 to 152 °C	COc1cc2c(c(-c3cccc(N4CC(C(=O)[O-])C4)c3)c1)NCC(C)(C)O2.[Na+] [Example 193, sodium 1-[3-(7-methoxy-2,2-dimethyl-3,4-dihydro-1,4-benzoxazin-5-yl)phenyl]azetidine-3-carboxylate]
55%	14 nM	50%	34 nM	83 to 95 °C	CC1Nc2c(cc(C(F)(F)F)cc2-c2cccc(N3CC(C(=O)O)C3)c2)OC1(C)C (stereo not shown) [Example 197, 1-[3-[2,2,3-trimethyl-7-(trifluoromethyl)-3,4-dihydro-1,4-benzoxazin-5-yl]phenyl]azetidine-3-carboxylic acid]
71%	14 nM	59%	38 nM	88 to 89 °C	CC(C)C1CNc2c(cc(C(F)(F)F)cc2-c2cccc(N3CC(C(=O)O)C3)c2)O1 (stereo not shown) [Example 198, 1-[3-[2-isopropyl-7-(trifluoromethyl)-3,4-dihydro-2H-1,4-benzoxazin-5yl]phenyl]azetidine-3-carboxylic acid]
99%	284 nM	65%	760 nM	75 to 81 °C	O=C(O)C1CN(c2cccc(-c3cc(C(F)(F)F)cc4c3NCCC4)c2)C1 [Example 201, 1-[3-[6-(trofluromethyl)-1,2,3,4-tetrahydroquinolin-8-yl]phenyl]azetidine-3-carboxylic acid]
55%	309 nM	51%	303 nM	160 to 169 °C	CC1(C)CNc2cc(C(F)(F)F)cc(-c3cccc(N4CC(C(=O)O)C4)c3)c2O1 [Example 202, 1-[3-[2,2-dimethyl-6-(trifluoromethyl)-3,4-dihydro-1,4-benzoxazin-8-yl]phenyl]azetidine-3-carboxylic acid]
87%	3 nM	84%	3 nM	163 to 173 °C	CC1(C)CNc2c(cc(C(C)(C)C)cc2-c2cccc(N3CC(C(=O)[O-])C3)c2)C1.[Na+] [Example 204, sodium 1-[3-(6-tert-butyl-3,3-dimethyl-2,4-dihydro-1H-quinolin-8-yl)phenyl]azetidine-3-carboxylate]
